This is an account of results in ChEMBL document CHEMBL1201862, “PubChem BioAssay data set” (2004).

The source made the active and inactive calls.

Experiment [1] addresses Sphingosine 1-phosphate receptor 4 (Homo sapiens, UniProt O95977). Nature of the experiment: Fluorescence dose response cell-based high throughput screening assay for antagonists of the Sphingosine 1-Phosphate Receptor 4 (S1P4). [Related pubchem assays: 1524 (Confirmation in triplicates.), 1510 (Primary screen.)]. In kind it is functional.
The next experiment addresses Beta Lactamase (Pseudomonas aeruginosa, UniProt Q932Y6). Nature of the experiment: BLA reporter interference, concentration series – BLA reporter cells, FRET fluorescence, artefact control for TLR9-MyD88 binding inhibitor project, dose response (AID 588341).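 Also: cell based assay in CHO-K1 cells stably expressing beta-lactamase.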 It is filed as cell-based.
Experiment [2] can be described thus: viability loss in HeLa cells – cytotoxicity control for MgcRacGAP inhibitor project, dose response (AID 624300). It is filed as functional.
A further experiment addresses Fatty acid synthase (Homo sapiens, UniProt P49327). Briefly: inhibition of human FAS-TE enzyme activity – biochemical, kinetic fluorescence intensity, dose response (AID 624326).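 Also: rate of fluorescence rise from hydrolysis of a fluorogenic O-methyl fluorescein ester substrate.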 In kind it is functional.
Experiment [3] addresses T1, Sentrin-specific protease 6 (Homo sapiens, UniProt Q9GZR1).
T1 sequence (Q9GZR1 whole entry): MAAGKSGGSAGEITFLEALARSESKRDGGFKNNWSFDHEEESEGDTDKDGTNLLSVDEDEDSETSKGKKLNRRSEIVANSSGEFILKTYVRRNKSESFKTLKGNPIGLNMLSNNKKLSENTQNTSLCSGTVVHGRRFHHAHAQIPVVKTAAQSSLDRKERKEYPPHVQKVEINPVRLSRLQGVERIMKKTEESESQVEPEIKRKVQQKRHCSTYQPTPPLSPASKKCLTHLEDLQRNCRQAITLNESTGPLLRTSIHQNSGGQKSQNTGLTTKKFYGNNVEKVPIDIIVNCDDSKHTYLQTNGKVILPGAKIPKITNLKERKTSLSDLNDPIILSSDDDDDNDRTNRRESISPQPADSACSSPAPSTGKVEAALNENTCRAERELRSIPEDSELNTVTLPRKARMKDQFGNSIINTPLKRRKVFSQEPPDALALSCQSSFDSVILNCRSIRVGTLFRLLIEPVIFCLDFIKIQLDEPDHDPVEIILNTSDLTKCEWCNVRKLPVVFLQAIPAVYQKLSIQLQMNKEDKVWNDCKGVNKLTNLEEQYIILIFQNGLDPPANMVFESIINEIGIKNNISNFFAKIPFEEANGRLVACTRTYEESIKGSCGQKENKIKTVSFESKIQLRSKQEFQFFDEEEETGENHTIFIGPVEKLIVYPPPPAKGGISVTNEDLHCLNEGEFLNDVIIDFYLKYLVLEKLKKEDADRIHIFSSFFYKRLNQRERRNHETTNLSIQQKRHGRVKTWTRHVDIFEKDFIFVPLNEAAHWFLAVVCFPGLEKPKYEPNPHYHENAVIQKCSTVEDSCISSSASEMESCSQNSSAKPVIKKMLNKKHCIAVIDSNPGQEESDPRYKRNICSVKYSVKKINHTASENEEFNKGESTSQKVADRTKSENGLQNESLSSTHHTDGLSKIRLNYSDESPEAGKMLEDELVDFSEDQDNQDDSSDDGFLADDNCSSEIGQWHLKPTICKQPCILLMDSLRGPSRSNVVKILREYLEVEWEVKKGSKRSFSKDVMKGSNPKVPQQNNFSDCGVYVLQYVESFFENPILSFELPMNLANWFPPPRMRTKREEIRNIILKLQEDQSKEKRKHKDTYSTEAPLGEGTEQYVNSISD
In kind it is functional.

For experiment [4], the target named is Peroxisome proliferator-activated receptor gamma/Nuclear receptor coactivator 2 (Homo sapiens, UniProt P37231). In kind it is functional.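 Also: agonist potency for raising coactivator recruitment to the receptor.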
The target of experiment [5] is T2, Mannose-6-phosphate isomerase (Homo sapiens, UniProt P34949).
T2 sequence (P34949 whole entry): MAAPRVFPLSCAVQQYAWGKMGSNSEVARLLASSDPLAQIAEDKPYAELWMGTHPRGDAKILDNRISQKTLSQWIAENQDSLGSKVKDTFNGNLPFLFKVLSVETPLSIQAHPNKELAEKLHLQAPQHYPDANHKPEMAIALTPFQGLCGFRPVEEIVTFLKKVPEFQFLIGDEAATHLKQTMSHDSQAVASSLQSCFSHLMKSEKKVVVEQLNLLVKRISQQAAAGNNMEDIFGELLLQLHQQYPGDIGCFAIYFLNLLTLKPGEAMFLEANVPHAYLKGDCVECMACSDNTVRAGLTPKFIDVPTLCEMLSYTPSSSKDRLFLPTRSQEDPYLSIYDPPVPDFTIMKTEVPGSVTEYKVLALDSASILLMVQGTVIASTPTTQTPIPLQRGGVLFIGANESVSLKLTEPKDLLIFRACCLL
Briefly: MPI inhibition at elevated mannose 6-phosphate – biochemical, fluorescence intensity, high mannose 6-phosphate, primary screen (AID 1220).

Experiment [6] addresses T3, Short transient receptor potential channel 4 (Mus musculus, UniProt Q9QUQ5).
T3 sequence (Q9QUQ5 whole entry): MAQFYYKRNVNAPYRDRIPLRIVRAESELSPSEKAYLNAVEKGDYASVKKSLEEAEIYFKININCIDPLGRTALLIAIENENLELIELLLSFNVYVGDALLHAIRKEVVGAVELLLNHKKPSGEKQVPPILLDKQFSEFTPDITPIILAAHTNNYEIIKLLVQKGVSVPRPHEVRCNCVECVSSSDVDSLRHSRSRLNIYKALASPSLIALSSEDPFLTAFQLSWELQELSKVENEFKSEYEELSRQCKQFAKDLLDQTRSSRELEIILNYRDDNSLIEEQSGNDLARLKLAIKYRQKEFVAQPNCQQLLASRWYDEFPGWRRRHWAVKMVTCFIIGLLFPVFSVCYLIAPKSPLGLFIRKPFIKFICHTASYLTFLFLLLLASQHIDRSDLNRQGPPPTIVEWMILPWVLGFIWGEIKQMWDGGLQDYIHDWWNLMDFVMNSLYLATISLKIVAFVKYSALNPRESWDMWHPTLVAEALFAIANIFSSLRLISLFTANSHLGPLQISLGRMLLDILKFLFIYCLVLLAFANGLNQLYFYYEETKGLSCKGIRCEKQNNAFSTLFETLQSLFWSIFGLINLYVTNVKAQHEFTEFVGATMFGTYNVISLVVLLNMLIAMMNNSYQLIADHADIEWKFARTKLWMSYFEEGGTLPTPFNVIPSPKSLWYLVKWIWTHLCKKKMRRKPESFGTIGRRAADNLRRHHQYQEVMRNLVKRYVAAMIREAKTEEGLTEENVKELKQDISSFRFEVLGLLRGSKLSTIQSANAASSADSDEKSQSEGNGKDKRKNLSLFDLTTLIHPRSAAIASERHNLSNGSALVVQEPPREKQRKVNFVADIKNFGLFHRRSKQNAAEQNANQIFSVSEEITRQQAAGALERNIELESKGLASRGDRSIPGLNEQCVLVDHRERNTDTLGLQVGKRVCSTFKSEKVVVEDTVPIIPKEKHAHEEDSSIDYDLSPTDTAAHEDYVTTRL
Briefly: block of DAMGO-driven TRPC4 calcium entry – cell-based, HEK293 TRPC4/mu-opioid, Fluo-4 calcium, dose response (AID 434942).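 Also: potency of inhibitors blocking the TRPC4 calcium response.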 It is filed as functional.

A short description of experiment [7]: off-target signal loss in HeLa-CEM21 co-culture – HeLa F-luc CTL cells, cherry-picked, counter-screen for HIV-1 Env fusion inhibitor project, dose response (AID 652040).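 Also: potency for signal decrease marking cytotoxic or nonspecific inhibition.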 In kind it is functional, cell-based.

Sequence of Beta Lactamase (Q932Y6 whole entry): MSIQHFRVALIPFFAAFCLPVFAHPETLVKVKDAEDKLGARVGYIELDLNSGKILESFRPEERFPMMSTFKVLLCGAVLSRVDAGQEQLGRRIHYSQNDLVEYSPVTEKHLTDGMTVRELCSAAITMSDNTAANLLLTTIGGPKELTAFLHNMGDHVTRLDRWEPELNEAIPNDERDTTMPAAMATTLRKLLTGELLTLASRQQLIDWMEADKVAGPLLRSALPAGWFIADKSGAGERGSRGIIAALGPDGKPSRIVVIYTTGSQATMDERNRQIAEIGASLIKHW
Sequence of Fatty acid synthase (P49327 whole entry): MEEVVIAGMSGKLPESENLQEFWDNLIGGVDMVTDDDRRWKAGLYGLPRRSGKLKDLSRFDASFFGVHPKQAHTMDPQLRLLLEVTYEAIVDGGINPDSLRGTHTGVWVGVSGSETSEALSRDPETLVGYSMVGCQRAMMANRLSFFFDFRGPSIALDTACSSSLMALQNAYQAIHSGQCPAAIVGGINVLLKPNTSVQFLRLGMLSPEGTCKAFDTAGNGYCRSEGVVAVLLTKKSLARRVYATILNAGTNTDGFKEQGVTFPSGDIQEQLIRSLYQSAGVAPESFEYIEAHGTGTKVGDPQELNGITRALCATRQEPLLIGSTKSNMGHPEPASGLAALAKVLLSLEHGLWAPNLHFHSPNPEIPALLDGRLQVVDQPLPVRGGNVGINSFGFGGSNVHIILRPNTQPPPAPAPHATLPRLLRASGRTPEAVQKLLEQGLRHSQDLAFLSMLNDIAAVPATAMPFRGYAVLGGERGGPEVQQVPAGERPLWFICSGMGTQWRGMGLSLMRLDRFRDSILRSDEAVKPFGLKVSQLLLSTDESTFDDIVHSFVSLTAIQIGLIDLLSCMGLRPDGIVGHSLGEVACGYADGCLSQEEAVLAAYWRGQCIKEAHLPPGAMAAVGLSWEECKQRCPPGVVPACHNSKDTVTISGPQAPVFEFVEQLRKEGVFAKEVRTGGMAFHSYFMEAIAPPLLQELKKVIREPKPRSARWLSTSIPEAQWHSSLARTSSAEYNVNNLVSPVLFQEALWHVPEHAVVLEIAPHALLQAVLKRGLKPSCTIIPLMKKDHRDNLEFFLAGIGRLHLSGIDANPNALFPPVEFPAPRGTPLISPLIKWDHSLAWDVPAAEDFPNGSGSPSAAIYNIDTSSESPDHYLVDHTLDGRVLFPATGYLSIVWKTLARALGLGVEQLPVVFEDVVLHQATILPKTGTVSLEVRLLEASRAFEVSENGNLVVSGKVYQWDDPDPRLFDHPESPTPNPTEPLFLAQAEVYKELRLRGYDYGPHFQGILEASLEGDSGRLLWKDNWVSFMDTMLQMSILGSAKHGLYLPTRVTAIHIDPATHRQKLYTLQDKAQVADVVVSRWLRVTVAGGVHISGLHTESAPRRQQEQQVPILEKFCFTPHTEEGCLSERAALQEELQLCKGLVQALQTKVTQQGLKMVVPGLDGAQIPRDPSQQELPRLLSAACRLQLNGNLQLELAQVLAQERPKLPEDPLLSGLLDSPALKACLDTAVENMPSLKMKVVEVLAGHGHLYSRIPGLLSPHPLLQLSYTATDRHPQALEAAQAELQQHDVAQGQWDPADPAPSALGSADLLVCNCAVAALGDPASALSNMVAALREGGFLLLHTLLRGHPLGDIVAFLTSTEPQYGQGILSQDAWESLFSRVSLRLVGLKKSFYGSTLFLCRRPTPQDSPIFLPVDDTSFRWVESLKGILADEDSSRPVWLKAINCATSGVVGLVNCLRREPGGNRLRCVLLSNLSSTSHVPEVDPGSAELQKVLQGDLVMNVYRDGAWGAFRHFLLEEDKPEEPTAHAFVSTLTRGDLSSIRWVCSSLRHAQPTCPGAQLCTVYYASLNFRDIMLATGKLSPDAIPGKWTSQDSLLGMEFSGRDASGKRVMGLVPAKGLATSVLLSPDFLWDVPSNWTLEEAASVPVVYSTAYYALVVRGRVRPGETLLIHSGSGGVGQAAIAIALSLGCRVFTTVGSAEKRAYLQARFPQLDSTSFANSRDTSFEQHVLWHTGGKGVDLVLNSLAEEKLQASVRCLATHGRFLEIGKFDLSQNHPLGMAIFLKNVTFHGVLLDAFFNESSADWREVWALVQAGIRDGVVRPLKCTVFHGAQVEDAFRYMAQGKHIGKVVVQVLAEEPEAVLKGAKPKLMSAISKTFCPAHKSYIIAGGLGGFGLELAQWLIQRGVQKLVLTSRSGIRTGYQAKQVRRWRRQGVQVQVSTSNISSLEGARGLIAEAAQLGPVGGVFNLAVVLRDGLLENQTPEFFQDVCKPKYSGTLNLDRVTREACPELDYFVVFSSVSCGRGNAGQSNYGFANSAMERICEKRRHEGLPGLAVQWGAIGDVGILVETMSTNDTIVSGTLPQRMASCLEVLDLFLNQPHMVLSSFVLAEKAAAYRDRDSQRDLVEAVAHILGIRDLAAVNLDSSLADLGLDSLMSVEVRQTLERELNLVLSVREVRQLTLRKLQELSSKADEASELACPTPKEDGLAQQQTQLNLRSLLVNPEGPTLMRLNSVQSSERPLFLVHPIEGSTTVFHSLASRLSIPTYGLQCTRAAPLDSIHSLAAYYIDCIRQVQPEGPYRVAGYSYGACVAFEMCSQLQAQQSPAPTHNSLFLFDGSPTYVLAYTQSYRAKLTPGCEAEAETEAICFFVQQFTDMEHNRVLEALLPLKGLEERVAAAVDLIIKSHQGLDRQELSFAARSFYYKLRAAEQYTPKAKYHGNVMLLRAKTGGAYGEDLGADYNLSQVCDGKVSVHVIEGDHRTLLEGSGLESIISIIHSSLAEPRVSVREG
Sequence of Sphingosine 1-phosphate receptor 4 (O95977 whole entry): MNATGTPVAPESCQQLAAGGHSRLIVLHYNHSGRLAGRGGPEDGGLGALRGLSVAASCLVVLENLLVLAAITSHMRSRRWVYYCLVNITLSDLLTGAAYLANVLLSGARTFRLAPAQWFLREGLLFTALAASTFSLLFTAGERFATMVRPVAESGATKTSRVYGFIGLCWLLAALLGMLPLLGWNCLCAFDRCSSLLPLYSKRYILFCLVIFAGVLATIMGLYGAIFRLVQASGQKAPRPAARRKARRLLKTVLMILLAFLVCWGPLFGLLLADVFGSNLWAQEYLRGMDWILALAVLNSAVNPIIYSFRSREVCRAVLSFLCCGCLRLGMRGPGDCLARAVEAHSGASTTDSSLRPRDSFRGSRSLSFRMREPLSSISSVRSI

Regarding `O=C(Nc1ccccc1Cl)/C(Cl)=C(\Cl)[S+]([O-])c1ccccc1` (centres undefined), the IC50 in [1] was 541 nM (active); on Beta Lactamase, > 5.53 µM (active); on Fatty acid synthase, 3.28 µM (active). Further, the CC50 in experiment [2] is 28.9 µM (active). As to `O=C(NC1(O)C(=O)c2ccccc2C1=O)c1ccccc1`, the IC50 in [3] was 2.39 µM (active).

`Cc1cc(C)nc(/N=c2/ssnc2Cl)c1`: the EC50 in [4] is > 79.4 µM (not active). Moreover, the IC50 in experiment [5] is 28.8 µM (active). `Cc1ccc(C)c(S(=O)(=O)/N=C2\C=C(NS(=O)(=O)c3ccccc3)C(=O)c3ccccc32)c1`: in [6], the EC50 was 6.68 µM (active). As to `CCCCCCCCCCCCCCCCn1cc[n+](C)c1`, in [7], the AC50 is 7.76 µM (active).

One may read the IC50 as the concentration needed to halve the response being measured. By CC50 is commonly meant the concentration giving 50% cytotoxicity. One may read the EC50 as the concentration giving half of the maximal effect. The term AC50 denotes the concentration giving half of the maximal activity seen.
